# Values joined by “and” are separate entries in the source; they are usually repeats but may differ in a detail not shown here. Identical values can stand only once. Like-named read-outs stand apart in the source and are kept apart here.
# Legend:
# [1] = Spectroscopic measurements of the dyes in four solvents (Test Example 2); assay type: physicochemical; conditions: for quantum yield in water relative to that in ethanol: water versus ethanol
# Procedure: The two-photon dyes prepared in Example 1 and Comparative Example 1 were dissolved in four solvents (hexane, DMF, ethanol and water), respectively. The one-photon maximum absorption wavelength (λmax), one-photon maximum emission wavelength (λ^f1max), two-photon maximum absorption wavelength (λ^(2)max), quantum yield (Φ) and two-photon absorption efficiency (δmax) of the solutions were measured, and the results are shown in Table 1. The absorption spectra were measured on a Hewlett-Packard 8453 diode array spectrophotometer. The fluorescence spectra were obtained with an Aminco Bowman series 2 luminescence spectrometer. The two-photon absorption efficiency means a maximum value of a two-photon cross section (δTPA). The two-photon cross section can be calculated by the following equation 1: […]
# wherein the subscripts s and r represent sample and reference molecules, respectively, δ represents the two-photon cross section, S represents the strength of signals collected by a CCD detector, Φ represents the fluorescence quantum efficiency, φ represents the total fluorescence collection efficiency of an experimental system, c represents the number density of the molecules within each of the solutions, and δr represents the two-photon cross section of reference molecules.
# [2] = Reflection tests of polarity of solvents, fluorescence spectra (Test Example 1); assay type: physicochemical
# Procedure: Time-resolved fluorescence (TRF) spectra of the two-photon dyes prepared in Comparative Example 1 and Example 1 were measured to examine changes in the one-photon fluorescence wavelength of the dyes according to the polarity of solvents. In this test, hexane, DMF, ethanol and water were used as solvents. The polarity of the solvents increases in the order: hexane<DMF<ethanol<water. […] Since Laurdan has a long hydrocarbon tail, the dye molecules surrounded by the adjacent dye molecules were placed in a hydrophobic environment, and as a result, a blue shift was observed. […] From these observations, it can be concluded that Laurdan is not suitable for use in real-time imaging of lipid rafts.
# On the other hand, time-resolved fluorescence (TRF) spectra of the two-photon dye (TPD4) prepared in Example 4 were measured to examine changes in the one-photon fluorescence wavelength of the dye according to the polarity of solvents. In this test, THF, DMF, ethanol and ethanol/water were used as solvents. The polarity of the solvents increases in the order: THF<DMF<ethanol<ethanol/water. […] As mentioned previously, the reason for this is because the fluorescence quantum yield and fluorescence lifetime of TPD4 in a hydrophilic environment were decreased drastically. Therefore, lipid rafts can be directly observed due to the difference in fluorescence intensity.
# [3] = Reflection tests of polarity of liposomes (Test Example 3); assay type: physicochemical; conditions: for fluorescence wavelength (peaks): DOPC liposomes; for maximum fluorescence wavelength: DPPC liposomes
# Procedure: Three kinds of liposomes having different fluidity (polarity) were prepared to examine how much the two-photon dyes prepared in Example 1 and Comparative Example 1 reflected the polarity of the liposomes. Specifically, DOPC liposomes were prepared from 1,2-dioleoyl-sn-glycerol-3-phosphocholine (DOPC) having unsaturated fatty acids so as to reflect the fluidity of phospholipids of plasma membranes. The DOPC liposomes were relatively fluid. DOPC/Sphingo/Chol liposomes were composed of DOPC, sphingomyelin and cholesterol in the same ratio so as to simultaneously reflect phospholipids and lipid rafts. DPPC liposomes were prepared from 1,2-dipalmitoyl-sn-glycerol-3-phosphocholine (DPPC) so as to reflect lipid rafts. The DPPC liposomes were in a gel state and had lowest fluidity. Next, the three kinds of liposomes were stained with Laurdan and TPD1, and their spectral properties were examined. Referring to FIGS. 3a (Laurdan) and 3b (TPD1), the maximum one-photon absorption wavelengths of Laurdan and TPD1 were in the range of 360-395 nm, regardless of the kind of the liposomes. However, the fluorescence intensity of the liposomes increased with the hydrophobicity of the liposomes in the order: DOPC<DOPC/Sphingo/Chol<DPPC. […] Referring to FIG. 3c, the maximum fluorescence wavelength of Laurdan in DPPC is 440 nm and the fluorescence spectrum of Laurdan in DOPC is broader.
# In the meanwhile, the fluorescence wavelength bands of Laurdan in DOPC/Sphingo/Chol and DPPC were confirmed to overlap almost completely. […] In contrast, TPD1 prepared in Example 1 emitted fluorescence of 442 nm in DPPC and fluorescence of 486 nm in DOPC (FIG. 3d). In addition, the fluorescence spectrum of TPD1 in the DOPC/Sphingo/Chol liposomes is broad and almost the same as the sum of the spectra in the DPPC and DOPC liposomes.
# On the other hand, the different kinds of liposomes were stained with TPD4 prepared in Example 4, and their fluorescence spectra were examined. Referring to FIG. 4, the fluorescence intensity of the fluid DOPC liposomes (in a hydrophilic environment) was ⅛ of that of the DPPC liposomes and about 1/6.5 of that of the DOPC/Sphingo/Chol liposomes.
# [4] = cited from earlier work
# A431 cells = assay: Cytotoxicity test, MTT assay (Test Example 7); assay type: cell-based; conditions: 1×10^−5 M, DMSO (1%) reference, incubation for 6 hours
# Description: To evaluate whether the two-photon dyes of the present invention are cytotoxic or not, MTT assay was done on the two-photon dye prepared in Example 1. Specifically, A431 cells were stained with TPD1 (1×10^−5 M) and DMSO (1%) was used as a reference solvent. […] Therefore, it can be concluded that the two-photon dye of the present invention is suitable for imaging of living cells.
SMILES,Φ (quantum yield) ([1]; solvent DMF),δmax (two-photon absorption efficiency) ([1]; solvent DMF) [GM],λ^(2)max (two-photon maximum absorption wavelength) ([1]; solvent DMF),λ^flmax (one-photon maximum emission wavelength) ([1]; solvent DMF),λmax (one-photon maximum absorption wavelength) ([1]; solvent DMF),Φ (quantum yield) ([1]; solvent ethanol),δmax (two-photon absorption efficiency) ([1]; solvent ethanol) [GM],λ^(2)max (two-photon maximum absorption wavelength) ([1]; solvent ethanol),λ^flmax (one-photon maximum emission wavelength) ([1]; solvent ethanol),λmax (one-photon maximum absorption wavelength) ([1]; solvent ethanol),Φ (quantum yield) ([1]; solvent hexane),λ^flmax (one-photon maximum emission wavelength) ([1]; solvent hexane),λmax (one-photon maximum absorption wavelength) ([1]; solvent hexane),Φ (quantum yield) ([1]; solvent water),λ^flmax (one-photon maximum emission wavelength) ([1]; solvent water),λmax (one-photon maximum absorption wavelength) ([1]; solvent water),quantum yield in water relative to that in ethanol [1],fluorescence wavelength (peaks) [3],maximum fluorescence wavelength [3] [nm],other results
"CCCCCCCCCCCC(=O)c1ccc2cc(N(C)C)ccc2c1 [Laurdan, reference compound]",1.00,50,780,454,356,1.00,57,780,487,363,0.11,407,344,0.01,431,354,1/100,439 nm and 484 nm,440,solubility in water ([2]; water): substantially insoluble in water; wavelength of light emitted in water ([2]; water): 400-460 nm; maximum fluorescence wavelength in water with the highest polarity ([2]; water versus less polar solvents): decreased (i.e. blue-shifted); fluorescence emitted in lipid raft domains in a hydrophobic environment ([4]; cell membranes): 400 to 460 nm; fluorescence emitted in phospholipid domains in a hydrophilic environment ([4]; cell membranes): 470 to 530 nm; fluorescence emitted by the precipitate ([4]; water): 450 nm; solubility in water ([4]; water): barely soluble in water
CCCCCCCCCCCC(=O)c1ccc2cc(N(C)CC(=O)O)ccc2c1 [TPD1],0.36,167,780,446,363,0.43,153,780,494,383,0.10,404,345,0.11,522,384,¼,486 nm,442,"two-photon absorption efficiency relative to the dye of Comparative Example 1 [1]: about three to six times; two-photon absorption efficiency, maximum ([1]; over the solvents): 323 GM; two-photon absorption efficiency, minimum ([1]; over the solvents): 153 GM; δmax (two-photon absorption efficiency) ([1]; solvent water): 323 GM; λ^(2)max (two-photon maximum absorption wavelength) ([1]; solvent water): 820; maximum fluorescence wavelength as the polarity of the solvents increased ([2]; hexane<DMF<ethanol<water): increased; fluorescence intensity relative to Laurdan ([3]; in all liposomes): 2-5 times; cytotoxicity (cell viability, MTT) versus reference solvent (A431 cells): no significant difference in cytotoxicity"
CCCCCCCCCC(=O)/C=C/c1ccc2cc(N(C)CC(=O)OC(C)(C)C)ccc2c1 [TPD4],,,,,,,,,,,,,,,,,,,,fluorescence intensity as the polarity of the solvents increased ([2]; THF<DMF<ethanol<ethanol/water): reduced drastically; fluorescence intensity of DOPC liposomes relative to DPPC liposomes ([3]; stained liposomes): ⅛
